Source: ChEMBL document CHEMBL1158411, “Second generation of BACE-1 inhibitors part 3: Towards non hydroxyethylamine transition state mimetics” (Bioorg Med Chem Lett, 2009)

Legend:
Cathepsin D = Cathepsin D (Homo sapiens, UniProt P07339); assay: Inhibition of cathepsin-D
Beta-secretase 1 [1] = target: T1, Beta-secretase 1 (Homo sapiens, UniProt P56817); assay: Inhibition of BACE1
Beta-secretase 2 = target: T2, Beta-secretase 2 (Homo sapiens, UniProt Q9Y5Z0); assay: Inhibition of BACE2
T2 sequence (Q9Y5Z0 whole entry): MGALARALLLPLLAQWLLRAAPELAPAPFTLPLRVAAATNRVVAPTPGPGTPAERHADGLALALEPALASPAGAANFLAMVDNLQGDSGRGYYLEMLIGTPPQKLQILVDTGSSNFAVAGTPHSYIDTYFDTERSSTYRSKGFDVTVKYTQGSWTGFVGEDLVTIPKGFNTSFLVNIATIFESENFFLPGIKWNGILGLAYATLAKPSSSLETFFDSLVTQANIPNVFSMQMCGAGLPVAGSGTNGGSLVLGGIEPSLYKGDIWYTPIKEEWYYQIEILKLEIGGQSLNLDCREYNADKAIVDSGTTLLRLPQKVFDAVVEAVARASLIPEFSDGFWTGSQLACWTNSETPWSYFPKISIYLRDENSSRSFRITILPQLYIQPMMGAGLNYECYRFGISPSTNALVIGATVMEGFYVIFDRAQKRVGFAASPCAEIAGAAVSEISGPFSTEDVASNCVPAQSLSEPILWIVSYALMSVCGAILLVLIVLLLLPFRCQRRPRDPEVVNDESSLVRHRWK

Beta-secretase 1 [2] = target: T1, Beta-secretase 1; assay: Inhibition of BACE1 in human SHSY5Y cells expressing wild type APP assessed as inhibition of intracellular amyloid beta-40 secretion; assay type: cell-based, SH-SY5Y
[3] = Lipophilicity, log D at pH 7.4; details: buffer
[4] = Bioavailability in rat; assay type: ADME, organism-based; details: in vivo
Blood [5] = assay: Steady sate drug level in blood of mdr1a/b knockout mouse by HPLC analysis; assay type: ADME, tissue-based; details: read-out: Css
Blood [6] = assay: Steady sate drug level in blood of wild type mouse expressing mdr1a/b by HPLC analysis; assay type: ADME, tissue-based
Brain [7] = assay: Steady sate drug level in brain of mdr1a/b knockout mouse by HPLC analysis; assay type: ADME, tissue-based; details: in vivo, read-out: Css
Brain [8] = assay: Steady sate drug level in brain of wild type mouse expressing mdr1a/b by HPLC analysis; assay type: ADME, tissue-based; details: in vivo
[9] = Blood clearance in mdr1a/b knockout mouse by HPLC analysis; assay type: ADME, organism-based
[10] = Blood clearance in wild type mouse expressing mdr1a/b by HPLC analysis; assay type: ADME, organism-based
[11] = Ratio of steady sate drug level in brain to blood of mdr1a/b knockout mouse; assay type: ADME, tissue-based
[12] = Ratio of steady sate drug level in brain to blood of wild type mouse expressing mdr1a/b; assay type: ADME, tissue-based
[13] = Half life in rat at 1 mg/kg/hr, iv; assay type: ADME, organism-based; design: route intravenous; details: in vivo
[14] = Cmax in rat at 10 mg/kg; assay type: ADME, organism-based; design: dose 10 mg/kg; details: in vivo
[15] = Blood clearance in rat at 1 mg/kg/hr, iv; assay type: ADME, organism-based; design: route intravenous
[16] = Volume of distribution in rat at 1 mg/kg/hr, iv; assay type: ADME, organism-based; design: route intravenous; details: in vivo
[17] = Blood clearance in dog at 1 mg/kg/hr, iv; assay type: ADME, organism-based, Canis lupus familiaris; design: route intravenous
[18] = Volume of distribution in dog at 1 mg/kg/hr, iv; assay type: ADME, organism-based, Canis lupus familiaris; design: route intravenous; details: in vivo
[19] = Half life in dog at 1 mg/kg/hr, iv; assay type: ADME, organism-based, Canis lupus familiaris; design: route intravenous; details: in vivo
[20] = Cmax in dog at 10 mg/kg; assay type: ADME, organism-based, Canis lupus familiaris; design: dose 10 mg/kg; details: in vivo
[21] = Bioavailability in dog; assay type: ADME, organism-based, Canis lupus familiaris; details: in vivo

T1 sequence (P56817 whole entry): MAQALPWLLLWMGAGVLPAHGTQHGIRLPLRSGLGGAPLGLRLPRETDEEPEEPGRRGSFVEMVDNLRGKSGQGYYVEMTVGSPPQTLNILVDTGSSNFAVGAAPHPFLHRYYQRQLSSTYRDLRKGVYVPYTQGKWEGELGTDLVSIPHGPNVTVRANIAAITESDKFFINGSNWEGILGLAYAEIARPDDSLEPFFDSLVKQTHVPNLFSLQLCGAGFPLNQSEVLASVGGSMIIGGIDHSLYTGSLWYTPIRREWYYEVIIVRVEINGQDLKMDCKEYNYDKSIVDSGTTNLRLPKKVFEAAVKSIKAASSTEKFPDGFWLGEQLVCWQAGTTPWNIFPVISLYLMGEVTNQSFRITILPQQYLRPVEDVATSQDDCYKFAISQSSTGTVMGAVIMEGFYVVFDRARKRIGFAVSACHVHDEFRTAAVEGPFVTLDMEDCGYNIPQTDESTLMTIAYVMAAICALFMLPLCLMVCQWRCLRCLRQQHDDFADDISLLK
Chain of Cathepsin D (P07339 65-162 limits assumed): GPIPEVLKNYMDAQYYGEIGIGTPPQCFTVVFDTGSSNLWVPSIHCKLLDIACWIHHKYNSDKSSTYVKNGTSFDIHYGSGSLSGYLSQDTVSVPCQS
Chain of Cathepsin D (P07339 169-412 limits assumed): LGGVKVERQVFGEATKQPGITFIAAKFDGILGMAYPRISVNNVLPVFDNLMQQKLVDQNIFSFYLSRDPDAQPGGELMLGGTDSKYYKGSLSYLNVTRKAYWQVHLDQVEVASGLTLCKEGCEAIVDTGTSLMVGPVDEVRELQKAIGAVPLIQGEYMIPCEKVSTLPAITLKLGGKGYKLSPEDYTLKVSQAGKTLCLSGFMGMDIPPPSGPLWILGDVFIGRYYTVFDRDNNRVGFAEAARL

C#CCNC[C@@H](O)[C@H](Cc1ccccc1)NC(=O)c1cc2c3c(c1)c(CC)cn3CCS(=O)(=O)N2C
IC50 (Cathepsin D): 75500 nM | IC50 (Beta-secretase 1 [1]): 73 nM | IC50 (Beta-secretase 2): 3100 nM | IC50 (Beta-secretase 1 [2]): 118 nM

CCc1cn2c3c(cc(C(=O)N[C@@H](Cc4ccccc4)[C@H](O)CN[C@H](C)CC)cc13)N(C)S(=O)(=O)CC2
IC50 (Cathepsin D): 5430 nM | IC50 (Beta-secretase 1 [1]): 22 nM | IC50 (Beta-secretase 2): 430 nM | IC50 (Beta-secretase 1 [2]): 144 nM | logD [3]: 1.52

CCc1cn2c3c(cc(C(=O)N[C@@H](Cc4ccccc4)[C@H](O)CNC4CC4)cc13)OS(=O)(=O)CC2
IC50 (Cathepsin D): 2970 nM | IC50 (Beta-secretase 1 [1]): 250 nM | IC50 (Beta-secretase 2): 1150 nM

CCn1cc2c3c(cc(C(=O)N[C@@H](Cc4ccccc4)C(=O)CNC4CCOCC4)cc31)N(C)S(=O)(=O)CC2
IC50 (Beta-secretase 1 [2]): 48 nM

CCn1cc2c3c(cc(C(=O)N[C@@H](Cc4ccccc4)[C@H](O)CNC4CC4)cc31)N(C)S(=O)(=O)CC2
IC50 (Cathepsin D): 6790 nM | IC50 (Beta-secretase 2): 370 nM | logD [3]: 1.79

CCc1cn2c3c(cc(C(=O)N[C@@H](Cc4ccccc4)[C@H](O)CNC4CC4)cc13)N(C)S(=O)(=O)CC2
IC50 (Beta-secretase 1 [1]): 11 nM | bioavailability [4]: 17% | logD [3]: 2.17 | concentration (Blood [5]): 397 nM | Css (Blood [6]): 490 nM | concentration (Brain [7]): 989 nM | Css (Brain [8]): 61 nM | clearance [9]: 62 mL/min/kg | clearance [10]: 72 mL/min/kg | Kp [11]: 2.41 | Kp [12]: 0.13

CCn1cc2c3c(cc(C(=O)N[C@@H](Cc4ccccc4)[C@H](O)CNCC(F)(F)C(F)(F)F)cc31)N(C)S(=O)(=O)CC2
IC50 (Beta-secretase 1 [1]): 32 nM | IC50 (Beta-secretase 1 [2]): 4430 nM

CCn1cc2c3c(cc(C(=O)N[C@@H](Cc4ccccc4)[C@H](O)CNc4ccccc4)cc31)N(C)S(=O)(=O)CC2
IC50 (Beta-secretase 1 [1]): 5 nM | IC50 (Beta-secretase 1 [2]): 739 nM

CC[C@@H](C)NC[C@@H](O)[C@H](Cc1ccccc1)NC(=O)c1cc2c3c(cn(CC)c3c1)CCS(=O)(=O)N2C
IC50 (Cathepsin D): 1190 nM | IC50 (Beta-secretase 1 [1]): 10 nM | IC50 (Beta-secretase 2): 420 nM | IC50 (Beta-secretase 1 [2]): 64 nM

CCc1cn2c3c(cc(C(=O)N[C@@H](Cc4ccccc4)[C@H](O)CNCCC(F)(F)F)cc13)N(C)S(=O)(=O)CC2
IC50 (Cathepsin D): 890 nM | IC50 (Beta-secretase 1 [1]): 7 nM | IC50 (Beta-secretase 2): 28 nM | IC50 (Beta-secretase 1 [2]): 8 nM | logD [3]: 2.8

CCn1cc2c3c(cc(C(=O)N[C@@H](Cc4ccccc4)[C@H](O)CNCC(F)(F)F)cc31)N(C)S(=O)(=O)CC2
IC50 (Beta-secretase 1 [1]): 79 nM | IC50 (Beta-secretase 1 [2]): 2110 nM

CCn1cc2c3c(cc(C(=O)N[C@@H](Cc4ccccc4)[C@H](O)CNCCF)cc31)N(C)S(=O)(=O)CC2
IC50 (Beta-secretase 1 [1]): 40 nM | IC50 (Beta-secretase 1 [2]): 245 nM

CCn1cc2c3c(cc(C(=O)N[C@@H](Cc4ccccc4)[C@H](O)CNCCC(F)(F)F)cc31)N(C)S(=O)(=O)CC2
IC50 (Cathepsin D): 570 nM | IC50 (Beta-secretase 2): 75 nM | half-life [13]: 3.3 h | Cmax [14]: 88 nM | bioavailability [4]: 13% | logD [3]: 2.59 | clearance [15]: 57 mL/min/kg | Vd [16]: 11 L/kg | clearance [17]: 14 mL/min/kg | Vd [18]: 4.8 L/kg | half-life [19]: 6.8 h | Cmax [20]: 3590 nM | bioavailability [21]: 52% | concentration (Blood [5]): 339 nM | Css (Blood [6]): 381 nM | concentration (Brain [7]): 335 nM | Css (Brain [8]): 40 nM | clearance [9]: 94 mL/min/kg | clearance [10]: 85 mL/min/kg | Kp [11]: 0.99 | Kp [12]: 0.1

C#CCNC[C@@H](O)[C@H](Cc1ccccc1)NC(=O)c1cc2c3c(cn(CC)c3c1)CCS(=O)(=O)N2C
IC50 (Cathepsin D): 34600 nM | IC50 (Beta-secretase 1 [1]): 11 nM | IC50 (Beta-secretase 2): 1490 nM | IC50 (Beta-secretase 1 [2]): 26 nM

CCn1cc2c3c(cc(C(=O)N[C@@H](Cc4ccccc4)[C@H](O)CNCC(F)F)cc31)N(C)S(=O)(=O)CC2
IC50 (Beta-secretase 1 [1]): 20 nM | IC50 (Beta-secretase 1 [2]): 51 nM

CCCNC[C@@H](O)[C@H](Cc1ccccc1)NC(=O)c1cc2c3c(cn(CC)c3c1)CCS(=O)(=O)N2C
IC50 (Beta-secretase 1 [1]): 8 nM | IC50 (Beta-secretase 1 [2]): 29 nM

C#CCNC[C@@H](O)[C@H](Cc1ccccc1)NC(=O)c1cc2c3c(c1)c(CC)cn3CCS(=O)(=O)O2
IC50 (Cathepsin D): 15100 nM | IC50 (Beta-secretase 1 [1]): 360 nM | IC50 (Beta-secretase 2): 3200 nM

CCNC[C@@H](O)[C@H](Cc1ccccc1)NC(=O)c1cc2c3c(cn(CC)c3c1)CCS(=O)(=O)N2C
IC50 (Cathepsin D): 19500 nM | IC50 (Beta-secretase 1 [1]): 23 nM | IC50 (Beta-secretase 2): 2170 nM | IC50 (Beta-secretase 1 [2]): 73 nM | logD [3]: 0.07

CCc1cn2c3c(cc(C(=O)N[C@@H](Cc4ccccc4)[C@H](O)CNCc4cccc(C(F)(F)F)c4)cc13)OS(=O)(=O)CC2
IC50 (Cathepsin D): 2160 nM | IC50 (Beta-secretase 1 [1]): 8 nM | IC50 (Beta-secretase 2): 260 nM

CCc1cn2c3c(cc(C(=O)N[C@@H](Cc4ccccc4)[C@H](O)CNC4CCOCC4)cc13)N(C)S(=O)(=O)CC2
IC50 (Cathepsin D): 60 nM | IC50 (Beta-secretase 1 [1]): 9 nM | IC50 (Beta-secretase 2): 210 nM | IC50 (Beta-secretase 1 [2]): 90 nM | logD [3]: 1.31

CCc1cn2c3c(cc(C(=O)N[C@@H](Cc4ccccc4)[C@H](O)CNCCF)cc13)N(C)S(=O)(=O)CC2
IC50 (Beta-secretase 1 [1]): 50 nM | IC50 (Beta-secretase 1 [2]): 209 nM

CCn1cc2c3c(cc(C(=O)N[C@@H](Cc4ccccc4)[C@H](O)CNC4CCOCC4)cc31)N(C)S(=O)(=O)CC2
IC50 (Cathepsin D): 2110 nM | IC50 (Beta-secretase 1 [1]): 5 nM | IC50 (Beta-secretase 2): 590 nM | IC50 (Beta-secretase 1 [2]): 27 nM | logD [3]: 0.9

CCNC[C@@H](O)[C@H](Cc1ccccc1)NC(=O)c1cc2c3c(c1)c(CC)cn3CCS(=O)(=O)N2C
IC50 (Cathepsin D): 36300 nM | IC50 (Beta-secretase 1 [1]): 48 nM | IC50 (Beta-secretase 2): 1140 nM | IC50 (Beta-secretase 1 [2]): 262 nM

CCc1cn2c3c(cc(C(=O)N[C@@H](Cc4ccccc4)[C@H](O)CNCC4CCOCC4)cc13)OS(=O)(=O)CC2
IC50 (Cathepsin D): 130 nM | IC50 (Beta-secretase 1 [1]): 86 nM | IC50 (Beta-secretase 2): 450 nM
